Experimental data as given in patent publication US20100022509A1, “Inhibitors of MshC and Homologs Thereof, and Methods of Identifying Same” (priority 2006, published 2010).

Biological target: T1, MshC (Mycobacterium tuberculosis, UniProt P9WJM9)
T1 sequence (P9WJM9 1-414): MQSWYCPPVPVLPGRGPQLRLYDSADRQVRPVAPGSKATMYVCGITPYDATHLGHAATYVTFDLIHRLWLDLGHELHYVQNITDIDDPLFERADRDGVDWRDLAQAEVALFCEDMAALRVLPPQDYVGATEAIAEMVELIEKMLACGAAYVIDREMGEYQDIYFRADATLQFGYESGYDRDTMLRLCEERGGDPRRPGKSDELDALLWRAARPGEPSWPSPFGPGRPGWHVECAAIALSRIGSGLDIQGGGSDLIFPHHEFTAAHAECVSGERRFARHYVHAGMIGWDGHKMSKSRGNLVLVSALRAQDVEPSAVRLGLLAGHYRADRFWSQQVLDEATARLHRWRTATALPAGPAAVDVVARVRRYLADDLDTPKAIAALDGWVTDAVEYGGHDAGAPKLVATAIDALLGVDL
Assay: biochemical
Format: biochemical, M. tuberculosis
Conditions: for inhibition of MshC in words, compounds grouped by X: X=S, X=SO, X=SO2

Row | SMILES | inhibition of MshC in words, compounds lacking the basic amino group or with groups in excess of 10 carbons on the remote amino residue | IC50 | further results
1 | O=C(NCCCN1CCN(Cc2ccccc2)CC1)c1ccc2c(c1)N(Cc1ccccc1)C(=O)c1ccccc1S2(=O)=O [Inhibitor 83-52] | little or no inhibition | 2.5 ± 1.2 mM | 
2 | CC(C)CN(CCCNC(=O)c1ccc2c(c1)N(Cc1ccccc1)C(=O)c1ccccc1S2(=O)=O)CC(C)C [Inhibitor 83-53] |  | > 3 mM | 
3 | CN(CCNC(=O)c1ccc2c(c1)N(Cc1ccccc1)C(=O)c1ccccc1S2(=O)=O)C1CCCCC1 [Inhibitor 83-54] |  | 0.51 ± 0.08 mM | inhibition of MshC in words, 1,3-diaminopropyl residue with remote amino residue capable of protonation: measurable inhibition; inhibition of MshC in words, Z benzyl moiety with methyl groups in the 2,5 positions or unsubstituted: Weak but detectable inhibition; inhibition of MshC in words, compounds grouped by X: Significant inhibition
4 | O=C(NCCCSC1CCCCC1)c1ccc2c(c1)N(Cc1ccccc1)C(=O)c1ccccc1S2(=O)=O [Inhibitor 83-55] | little or no inhibition | > 3 mM | 
5 | O=C(NCCN1CCN(Cc2ccccc2)CC1)c1ccc2c(c1)N(Cc1cccc(Cl)c1)C(=O)c1ccccc1[S+]2[O-] (stereo not drawn) [Inhibitor 83-56] | little or no inhibition | > 3 mM | 
6 | CC1CCCN(CCCNC(=O)c2ccc3c(c2)N(Cc2cccc(Cl)c2)C(=O)c2ccccc2S3(=O)=O)C1 (stereo not drawn) [Inhibitor 83-57] |  | ~1 mM | 
7 | O=C(NCCCC1CCCCCC1)c1ccc2c(c1)N(Cc1cccc(Cl)c1)C(=O)c1ccccc1S2(=O)=O [Inhibitor 83-58] |  | ≥ 0.5 mM | inhibition of MshC in words, Z is a benzyl moiety bearing one or more halogens: Measurable inhibition
8 | CN(CCCNC(=O)c1ccc2c(c1)N(Cc1cccc(Cl)c1)C(=O)c1ccccc1S2(=O)=O)c1ccccc1 [Inhibitor 83-59] |  | > 3 mM | 
9 | CCCCN(C)CCCNC(=O)c1ccc2c(c1)N(Cc1cccc(Cl)c1)C(=O)c1ccccc1[S+]2[O-] (stereo not drawn) [Inhibitor 83-60] |  |  | inhibition of MshC in words, compounds grouped by X: Significant inhibition
10 | O=C(NCCCSC1CCCCC1)c1ccc2c(c1)N(Cc1cccc(Cl)c1)C(=O)c1ccccc1[S+]2[O-] (stereo not drawn) [Inhibitor 83-61] | little or no inhibition | ~1 mM | 
11 | O=C(NCCN1CCN(Cc2ccccc2)CC1)c1ccc2c(c1)N(Cc1cccc(Cl)c1)C(=O)c1ccccc1[S+]2[O-] (stereo not drawn) [Inhibitor 83-62] | little or no inhibition | 2.1 ± 0.9 mM | 
12 | CN(CCCNC(=O)c1ccc2c(c1)N(Cc1cccc(Cl)c1)C(=O)c1ccccc1[S+]2[O-])c1ccccc1 (stereo not drawn) [Inhibitor 83-63] |  | > 2 mM | 
13 | CC1CCCN(CCCNC(=O)c2ccc3c(c2)N(Cc2cccc(Cl)c2)C(=O)c2ccccc2[S+]3[O-])C1 (stereo not drawn) [Inhibitor 83-64] |  | 0.15 ± 0.03 mM | inhibition of MshC in words, 1,3-diaminopropyl residue with remote amino residue capable of protonation: measurable inhibition; inhibition of MshC in words, Z is a benzyl moiety bearing one or more halogens: Measurable inhibition; inhibition of MshC in words, compounds grouped by X: Significant inhibition
14 | CC1CC(C)CN(CCCNC(=O)c2ccc3c(c2)N(Cc2cccc(Cl)c2)C(=O)c2ccccc2[S+]3[O-])C1 (stereo not drawn) [Inhibitor 83-65] |  |  | inhibition of MshC in words, 1,3-diaminopropyl residue with remote amino residue capable of protonation: measurable inhibition; inhibition of MshC in words, Z is a benzyl moiety bearing one or more halogens: Measurable inhibition; inhibition of MshC in words, compounds grouped by X: Significant inhibition
15 | CCC1CCCN(CCCNC(=O)c2ccc3c(c2)N(Cc2cccc(Cl)c2)C(=O)c2ccccc2[S+]3[O-])C1 (stereo not drawn) [Inhibitor 83-66] |  | 0.08 ± 0.02 mM | inhibition of MshC in words, 1,3-diaminopropyl residue with remote amino residue capable of protonation: measurable inhibition; inhibition of MshC in words, Z is a benzyl moiety bearing one or more halogens: Measurable inhibition; inhibition of MshC in words, compounds grouped by X: Significant inhibition
16 | CC(C)CN(CCCNC(=O)c1ccc2c(c1)N(Cc1cccc(Cl)c1)C(=O)c1ccccc1[S+]2[O-])CC(C)C (stereo not drawn) [Inhibitor 83-67] |  | ~3 mM | 
17 | O=C(NC1CCN(Cc2ccccc2)CC1)c1ccc2c(c1)N(Cc1cccc(Cl)c1)C(=O)c1ccccc1[S+]2[O-] (stereo not drawn) [Inhibitor 83-68] |  | 1.5 ± 0.5 mM | 
18 | O=C(NCCN1CCN(Cc2ccccc2)CC1)c1ccc2c(c1)N(Cc1cccc(Cl)c1)C(=O)c1ccccc1[S+]2[O-] (stereo not drawn) [Inhibitor 83-69] | little or no inhibition | 2.5 ± 0.7 mM | 
